According to US12322837B2, “Electrochemical reduction of halogenated compounds comprising a haloalkane” (Massachusetts Institute of Technology, priority 2021, dated 2025):
Values after ≈ are worked out from the molar mass of the structure shown.

Columns and labels:
[1] = Ionic conductivity of NO2-Ph-SF5-containing electrolytes; format: physicochemical
Source text: Theoretical capacities correspond to 8 e^−per molecule. Capacities increased from 292 to 362 mAh·gsub-stack^−1 as concentration increased from 3 M to 4 M, beyond which further gains were negligible. The maximum gravimetric energy of 1085 Wh·kgsub-stack^−1 was obtained at 4.5 M. Capacity and energy decreased with concentrations exceeding 4.5 M due to diminishing supporting solvent (DMSO, ˜16 wt. % of the catholyte at 5 M), which led to significant decline in ionic conductivity from 6.4 to 0.6 mS·cm^−1 from 0.1 M to 5 M (FIG. 24). Additionally, low DMSO content decreases the ability to solubilize LiF, making electrode passivation effects more severe. Capacities remained constant at ˜362 mAh·gsub-stack^−1 from 0.3-1.0 mA·cm^−2 (0.01 C-0.04 C) and decreased moderately thereafter up to 3 mA·cm^−2 (0.12 C), indicating excellent rate capability.

[2] = Solubility/miscibility of reactants in DMSO or 0.1 M LiClO4/DMSO; format: physicochemical; settings: for miscibility with 0.1 M LiClO4/DMSO: even at 50° C.
Source text: To understand the effect of the chain length of the RF group, the discharge profiles of Ph-NO2-C6 (o) vs. Ph-NO2-C8 (o) and Ph-CN-C6 (p) vs. Ph-CN-C8 (p) were compared. As is shown in FIG. 5, up to 11 e- or 15 e- transfer per molecule (calculated based on capacities) can be obtained during discharge for C6 or C8 containing reactants, respectively. […] For example, Ph-CN-C6 (p) is liquid and miscible with DMSO at RT, but its C8 counterpart is solid at RT and is only soluble at elevated temperatures (e.g., 50° C.).

Structure (SMILES) | miscibility with 0.1 M LiClO4/DMSO [2] | solubility / reachable concentration in 0.1 M LiClO4/DMSO ([2]; RT) | further results
O=[N+]([O-])c1ccc(S(F)(F)(F)(F)F)cc1 [NO2-Ph-SF5, 4-Nitrophenylsulfur pentafluoride] |  |  | ionic conductivity of electrolyte ([1]; 0.1 M NO2-Ph-SF5): 6.4 mS·cm^−1; ionic conductivity of electrolyte ([1]; 5 M NO2-Ph-SF5): 0.6 mS·cm^−1
FC(F)(F)c1ccccc1C=CC(F)(F)C(F)(F)C(F)(F)C(F)(F)C(F)(F)C(F)(F)F [Ph-CF3—C6 (o)] | negligible miscibility |  | 
FC(F)(F)c1ccc(C=CC(F)(F)C(F)(F)C(F)(F)C(F)(F)C(F)(F)C(F)(F)F)cc1 [Ph-CF3—C6 (p)] | negligible miscibility |  | 
N#Cc1ccc(C=CC(F)(F)C(F)(F)C(F)(F)C(F)(F)C(F)(F)C(F)(F)F)cc1 [Ph-CN-C6 (p)] |  |  | miscibility with DMSO ([2]; RT): miscible
N#Cc1ccc(C=CC(F)(F)C(F)(F)C(F)(F)C(F)(F)C(F)(F)C(F)(F)C(F)(F)C(F)(F)F)cc1 [Ph-CN-C8 (p)] |  | not soluble | solubility limit in 0.1 M LiClO4/DMSO ([2]; 50° C.): 800 mM (≈ 438 mg/mL)
O=[N+]([O-])c1ccccc1C=CC(F)(F)C(F)(F)C(F)(F)C(F)(F)C(F)(F)C(F)(F)C(F)(F)C(F)(F)F [Ph-NO2—C8 (o)] |  | 2000 mM (≈ 1130 mg/mL) | 
